Laboratory results as given in PubChem BioAssay AID1996.
Converted amounts (≈) assume the structure as drawn.

Conditions: buffer; pH 7.4; 200.0 µM

| Compound | solubility kinetic |
| --- | --- |
| Cc1ccc(OCC(=O)NC2CC(C)(C)NC(C)(C)C2)c(C)c1 | > 47.8 µg/mL |
| Cc1cnc(NC(=O)CCN2C(=O)C3CCCCC3C2=O)s1 (centres undefined) | 39.3 µg/mL (≈ 122 µM) |
| CSc1ccccc1C(=O)Nc1ccc2c(c1)OCO2 | > 43.1 µg/mL |
| CSc1ccccc1C(=O)OCC(=O)Nc1ccc(N2CCOCC2)cc1 | 9.3 µg/mL (≈ 24.1 µM) |
| O=S(=O)(c1ccc2oc(=S)[nH]c2c1)N1CCOCC1 | > 45.1 µg/mL |
| COc1cccc(C(NC(C)=O)c2ccc3cccnc3c2O)c1 (centres undefined) | 44.4 µg/mL (≈ 138 µM) |
| O=C(CSCCS(=O)(=O)c1ccc(Cl)cc1)Nc1ccccc1 | 3.5 µg/mL (≈ 9.46 µM) |
| COc1ccc(C=O)cc1Oc1nc(Cl)ncc1F | 32 µg/mL (≈ 113 µM) |
| CC1CCCC(NC(=O)COC(=O)/C=C/c2ccc([N+](=O)[O-])cc2)C1C (centres undefined) | 4.8 µg/mL (≈ 13.3 µM) |
| COc1ccc(CCNC(=O)CSc2ccccn2)cc1OC | > 49.9 µg/mL |
| Cc1cccc(C(=O)OCC(=O)N2CCN(C(=O)c3ccco3)CC2)c1O | 38.8 µg/mL (≈ 104 µM) |
| CS(=O)(=O)c1ccc2nc(NC(=O)CN3CCOCC3)sc2c1 | 40.6 µg/mL (≈ 114 µM) |
| OCCN(Cc1ccccc1)c1ncnc2sccc12 | > 42.8 µg/mL |
| Cc1ccc(NC(=O)CSc2nccn2C)cc1F | > 41.9 µg/mL |
| COc1cc(OC)nc(Oc2cccc(Cl)c2C)n1 | 1.5 µg/mL (≈ 5.34 µM) |
| CC1(C)OC(C)(C)/C(=C\c2ccccc2[N+](=O)[O-])C1=O | 27.7 µg/mL (≈ 101 µM) |
| O=C(N/C=C/n1cnc2cc(C(F)(F)F)ccc21)c1ccccc1F | 4.9 µg/mL (≈ 14 µM) |
| CN(CC(=O)Nc1ccccc1)CC(=O)Nc1ccccc1Cl | > 49.8 µg/mL |
| Cn1nccc1C(=O)OCC(=O)Nc1ccccc1 | > 38.9 µg/mL |
| O=C(c1ccc(Cl)cc1)N1CCc2ccccc21 | 7.2 µg/mL (≈ 27.9 µM) |
| Cc1cccc(-c2nc(Nc3cccc(O)c3)c3ccccc3n2)c1 | 1 µg/mL (≈ 3.05 µM) |
| CNc1ccc(OC)cc1-n1cnc(-c2ccc([N+](=O)[O-])cc2)c1 | 0.6 µg/mL (≈ 1.85 µM) |
| O=C(CCS(=O)(=O)c1ccccc1)NC1CCCC1 | > 42.2 µg/mL |
| COc1ccc(NC(=O)N2CCc3cc(OC)c(OC)cc3C2)cc1 | 9.1 µg/mL (≈ 26.6 µM) |

| Compound | solubility kinetic |
| --- | --- |
| COc1cc(OC)c(C2Nc3cccc4cccc(c34)N2)c(OC)c1 | 4.4 µg/mL (≈ 13.1 µM) |
| COc1ccc(OC)c(C(=O)COC(=O)c2ccc([N+](=O)[O-])o2)c1 | > 50.3 µg/mL |
| COCc1cc(=O)[nH]c(Cc2c(Cl)cccc2Cl)n1 | 1.7 µg/mL (≈ 5.68 µM) |
| COc1ccc(S(=O)(=O)NCc2csc(C)n2)cc1OC | > 49.3 µg/mL |
| COC(=O)c1ccc2c(=O)[nH]c(COC(=O)c3[nH]c(C)c(C(C)=O)c3C)nc2c1 | 18.1 µg/mL (≈ 45.5 µM) |
| O=C(c1ccc(F)cc1Cl)N1CCC2(CC1)OCCO2 | > 45 µg/mL |
| Cc1ccc(NC(=O)C2CC2c2ccccc2)c([N+](=O)[O-])c1 (centres undefined) | 3.5 µg/mL (≈ 11.8 µM) |
| Nc1c2c(nc3sc4c(c13)CCCC4)-c1ccccc1CC2 | < 0.3 µg/mL |
| O=C1CC(NC2CCN(C(=O)c3cccc(F)c3)CC2)C(=O)N1 (centres undefined) | > 47.9 µg/mL |
| CN(Cc1ccccc1Cl)C(=O)c1cc2ccccc2o1 | 13.7 µg/mL (≈ 45.7 µM) |
| Cc1ccc(-c2ccc(CO)o2)cc1N | > 30.5 µg/mL |
| COC(=O)Cc1c(O)ccn(CCc2ccccc2)c1=O | > 43.1 µg/mL |
| Cc1ccc(C(=O)NCCc2ccccc2)cc1N1CCCC1=O | > 48.4 µg/mL |
| COC(=O)c1c(C)oc(C)c1S(=O)(=O)NC(C)(C)C | > 43.4 µg/mL |
| CN(C)c1ccc(C2N(C)C(=O)c3ccccc3N2C)cc1 (centres undefined) | 40.9 µg/mL (≈ 138 µM) |
| CC(=O)N/C(=C\c1ccccc1)C(=O)OCC(=O)c1c(N)n(C)c(=O)n(C)c1=O | 18.2 µg/mL (≈ 45.5 µM) |
| COc1cc(CNc2ncnc3c2[nH]c2ccc(C)cc23)cc(OC)c1 | 0.7 µg/mL (≈ 2.01 µM) |
| Cc1ccc(CNC2CCCCC2)s1.Cl | > 36.9 µg/mL |
| Cc1cc(C)nc(N2Cc3ccccc3C2=N)n1 | > 35.7 µg/mL |
| Cc1cn(CCOc2ccc(Cl)cc2)c(=O)[nH]c1=O | 36.8 µg/mL (≈ 131 µM) |
| O=C(CCc1ccc(S(=O)(=O)N2CCOCC2)cc1)OCC(=O)c1ccccc1 | 7.6 µg/mL (≈ 18.2 µM) |
| Cc1cc(C(=O)COC(=O)Cc2ccc(Br)cc2)c(C)n1C | 15.2 µg/mL (≈ 41.7 µM) |
| COC(=O)C1=C(C)N(C)C(=O)NC1c1c(O)ccc2ccccc12 (centres undefined) | > 49 µg/mL |
| CN(C(=O)COC(=O)c1ccc[nH]c1=O)C1CCCCC1 | > 43.9 µg/mL |

| Compound | solubility kinetic |
| --- | --- |
| CN(CC(=O)Nc1ccccc1Cl)C(=O)c1ccc(Cl)c(S(=O)(=O)N2CCCCCC2)c1 | 21.6 µg/mL (≈ 43.3 µM) |
| COCCCNC(=S)Nc1ccccc1[N+](=O)[O-] | > 40.4 µg/mL |
| Cc1cccc(NC(=O)CNC(=O)c2ccc3nc[nH]c3c2)c1C | > 48.4 µg/mL |
| Cl.O=C1CC[C@@]2(O)[C@H]3Cc4ccc(O)c5c4[C@@]2(CCN3CC2CC2)[C@H]1O5 | > 56.7 µg/mL |
| COc1cc2c(cc1OC)-c1cc(Nc3cccc(C)c3)nc(=O)n1CC2 | 2.5 µg/mL (≈ 6.88 µM) |
| O=C1CCC([N+](=O)[O-])C(c2cccc([N+](=O)[O-])c2)N1 (centres undefined) | > 39.8 µg/mL |
| CN(C)C(CNC(=O)c1ccc([N+](=O)[O-])cc1Cl)c1ccco1 (centres undefined) | > 50.7 µg/mL |
| OCCNCC12CC3CC(CC(C3)C1)C2 | 26.4 µg/mL (≈ 126 µM) |
| CCCN(Cc1cc(=O)[nH]c2ccccc12)C(=O)CC | 38.5 µg/mL (≈ 141 µM) |
| OCCN(CCO)c1nc2ccccc2[nH]1 | > 33.2 µg/mL |
| CCOc1ncccc1C(=O)NCC(c1ccco1)N1CCCCC1 (centres undefined) | > 51.5 µg/mL |
| Cc1nc2ccc([N+](=O)[O-])cc2c(=O)n1Cc1ccc([N+](=O)[O-])cc1 | 2.5 µg/mL (≈ 7.35 µM) |
| CC1CC(C)CN(CC(O)COCc2ccccc2)C1.Cl (centres undefined) | 46.9 µg/mL |
| COc1cccc(NC(=O)C(=O)NCCCN2CCCC2=O)c1 | > 47.9 µg/mL |
| CC(C)CC(=O)N1CCN(Cc2ccccc2Br)CC1 | 42 µg/mL (≈ 124 µM) |
| CCOc1cc(N2CCOCC2)c(OCC)cc1NC(=O)COC(=O)c1ccc([N+](=O)[O-])o1 | > 69.5 µg/mL |
| CSc1ncccc1C(=O)OCC(=O)N1CCCC1 | > 42.1 µg/mL |
| Cl.NOCC(=O)O | > 16.4 µg/mL |
| CC1CC(=O)N(c2ccc(Br)cc2)C(=O)C1 | > 42.3 µg/mL |
| O=C(OCc1cc(=O)n2ccsc2n1)c1ccccc1NCCO | > 51.8 µg/mL |
| Cc1cc(C)nc(NC(=O)NC(=O)c2ccccc2)n1 | > 40.5 µg/mL |
| O=C(NC1CCN(c2ncccn2)CC1)c1ccccc1Cl | > 47.5 µg/mL |
| Cc1ccc(C2Nc3cccc4cccc(c34)N2)cc1 | 4.7 µg/mL (≈ 18.1 µM) |
| O=[N+]([O-])/C=C1\CCCCCN1 | > 23.4 µg/mL |

| Compound | solubility kinetic |
| --- | --- |
| C=CCN(CC(=O)O)S(=O)(=O)c1ccccc1C(F)(F)F | > 48.5 µg/mL |
| O=C(/C=C/c1ccco1)N1CCN(S(=O)(=O)c2ccccc2)CC1 | > 52 µg/mL |
| CC1CCCN(CCS(=O)(=O)c2ccccc2)C1 (centres undefined) | 39.5 µg/mL (≈ 148 µM) |
| Cc1cc(/C=C2/C(=O)NC(=O)N(c3ccc(Br)cc3)C2=O)c(C)n1C | 5.3 µg/mL (≈ 13.2 µM) |
| CCOc1ccc(/C=C\c2nc(O)c([N+](=O)[O-])c(=O)[nH]2)cc1OCC | 29 µg/mL (≈ 83.5 µM) |
| COc1cccc(-c2cc(C(=O)NCC3CCCO3)c3cc(Br)cc(C)c3n2)c1 (centres undefined) | < 0.5 µg/mL |
| O=C1CN(O)C(c2ccccc2)=c2cc(Cl)ccc2=N1 | 37.9 µg/mL (≈ 132 µM) |
| NC(=S)Nc1ccc2c(c1)OCO2 | > 29.4 µg/mL |
| O=C(NCC(=O)N1CCCCCCC1)c1ccccc1Cl | > 46.3 µg/mL |
| CN1CCN(c2ccc(C(F)(F)F)cc2N)CC1 | > 38.9 µg/mL |
| CC(C)c1ccccc1NC(=O)Nc1ccc2c(c1)OCO2 | 2.7 µg/mL (≈ 9.05 µM) |
| Fc1ccccc1-c1nc(-c2ccc(Br)o2)no1 | < 0.3 µg/mL |
| O=C(Cc1ccc2ccccc2c1)Nc1ccccc1Br | < 0.7 µg/mL |
| CSCC[C@H](NC(=O)c1ccco1)c1nnc2ccccn12 | > 47.5 µg/mL |
| COc1ccccc1NS(=O)(=O)c1ccc2oc(N)nc2c1 | > 47.9 µg/mL |
| O=C(NCc1ccc(Cl)cc1)C1CCN(c2cnccn2)CC1 | > 49.6 µg/mL |
| CCSc1nc2ccc(C)cc2cc1C#N | < 0.2 µg/mL |
| Cc1ccc(CNCCCSc2ncccn2)cc1 | 36.3 µg/mL (≈ 133 µM) |
| O=[N+]([O-])c1ccccc1CNC1CCCc2ccccc21 (centres undefined) | 20.8 µg/mL (≈ 73.7 µM) |
| C=CCNc1nc(C(=O)OCC(=O)c2ccc(F)cc2)cs1 | 11.2 µg/mL (≈ 35 µM) |
| O=C(Oc1ccc(C(=S)N2CCOCC2)cc1Cl)c1ccccc1F | 9.9 µg/mL (≈ 26.1 µM) |
| COc1cccc(Oc2c(C)oc3c(CN4CCCC4)c(O)ccc3c2=O)c1 | 40.6 µg/mL (≈ 106 µM) |
| CCOc1ccc(NC(=O)CN2CCc3ccccc3C2)cc1 | 34 µg/mL (≈ 110 µM) |
| N#C/C(=C\c1cccs1)C(=O)N1CCOCC1 | 35.5 µg/mL (≈ 143 µM) |

| Compound | solubility kinetic |
| --- | --- |
| Cn1cccc1C1CCCN1CC(=O)Nc1ccc(F)c(F)c1F (centres undefined) | > 50.6 µg/mL |
| CC(=O)Nc1ccc(C(=O)N2CC(=O)NC(=O)C2)cc1 | > 41.3 µg/mL |
| CCCOc1c(Cl)cc(C(=O)NC)cc1OC | > 38.7 µg/mL |
| N#Cc1ccc(OCC(=O)Nc2ccncc2)cc1 | 36 µg/mL (≈ 142 µM) |
| N#C/C(=C(/O)CO/N=C/c1ccccc1Cl)c1nc2ccccc2[nH]1 | < 0.2 µg/mL |
| Fc1ccccc1NC(=S)NC1CCCC1 | 35.2 µg/mL (≈ 148 µM) |
| O=C(Nc1nccs1)C1CC(=O)N(Cc2ccco2)C1 (centres undefined) | 40.7 µg/mL (≈ 140 µM) |
| N/C(=N/OC(=O)c1ccccc1Cl)c1ncc([N+](=O)[O-])s1 | 1.3 µg/mL (≈ 3.98 µM) |
| Cc1ccc(C(C)C)c(OCC(O)CNC2CCCC2)c1.Cl (centres undefined) | > 49.2 µg/mL |
| O=C(c1cc(Cl)ccc1Cl)N1CCN(Cc2ccccc2)CC1 | > 52.4 µg/mL |
| CC1CC=C(c2ccccc2)C(=S)N1 (centres undefined) | > 30.5 µg/mL |
| CC(Sc1nccn1C)C(=O)Nc1ccc(Cl)cn1 (centres undefined) | > 44.5 µg/mL |
| Cc1c(Cl)cccc1NC(=O)C1CCN(S(C)(=O)=O)CC1 | 16.9 µg/mL (≈ 51.1 µM) |
| O=C1CSC(=Nc2ccc(O)cc2)N1 | > 31.2 µg/mL |
| O=C(CCN1C(=O)c2ccccc2C1=O)NCCCn1ccnc1 | > 49 µg/mL |
| Cc1ccccc1S(=O)(=O)NC(=NCc1ccc(F)cc1)c1ccccc1 | 34.1 µg/mL (≈ 89.2 µM) |
| O=C(NC1CC1)C1CCN(C(=O)c2ccccc2Cl)CC1 | > 46 µg/mL |
| O=C1c2cccc3c(O)ccc(c23)C(=O)N1c1ccc(Cl)cc1 | 16.2 µg/mL (≈ 50 µM) |
| NC(=O)CSc1ccc(S(=O)(=O)N2CCCCC2)cn1 | 44.6 µg/mL (≈ 141 µM) |
| CC(=O)c1ccccc1NC(=O)COC(=O)c1cc[n+]([O-])cc1 | > 47.1 µg/mL |
| CCN1CCN(C(=S)NC(=O)c2cccs2)CC1 | > 42.5 µg/mL |
| Cc1ccc2nc(SC(C)C(=O)N3CCCCC3)[nH]c2c1 (centres undefined) | > 45.5 µg/mL |
| O=C(CN1CCCc2ccccc21)Nc1ccc(F)cc1[N+](=O)[O-] | < 0.2 µg/mL |
